Experimental data taken from patent publication US5830897A, “α- and β-amino acid hydroxyethylamino sulfonamides useful as retroviral protease inhibitors” (G. D. Searle & Co., priority 1995, dated 1998).
Like-named read-outs stand apart in the source and are kept apart here. One block for each molecule: values may come before it.

Key:
HIV protease = biological target: T1, HIV protease (Human immunodeficiency virus type 1 group M subtype B, UniProt P04585); assay: biochemical
T1 construct: HIV protease is diluted in the assay buffer to a final enzyme concentration of 12.3 nanomolar, based on a molecular weight of 10,780
Method: The enzyme method is described below. […] The positive control is MVT-101 (Miller, M. et al, Science, 246, 1149 (1989)] The assay conditions are as follows:
Assay buffer: 20 mM sodium phosphate, pH 6.4
The above described substrate is dissolved in DMSO, then diluted 10 fold in assay buffer. Final substrate concentration in the assay is 80 μM.
The final concentration of DMSO is 14% and the final concentration of glycerol is 18%. The test compound is dissolved in DMSO and diluted in DMSO to 10× the test concentration; 10 μl of the enzyme preparation is added, the materials mixed and then the mixture is incubated at ambient temperature for 15 minutes. The enzyme reaction is initiated by the addition of 40 μl of substrate. The increase in fluorescence is monitored at 4 time points (0, 8, 16 and 24 minutes) at ambient temperature. Each assay is carried out in duplicate wells.

[1] = Intrinsic toxicity of test compound in CEM cells without virus (MTT); assay type: cell-based; details: human, Table 16, read-out: TD50 (the source's name)
From the text: Methods, 20, 309-321 (1988).

[2] = Table 15A, second part (Ex., Table, Entry)
[3] = Table 15A, @ 1 uM, read-out: % inhib
[4] = Table 15A, @ 10 uM, read-out: % inhib
[5] = Table 5B, @ 1 μM, read-out: % inhibition

Compound: CC(C)CCN(C[C@@H](O)[C@H](Cc1ccccc1)NC(=O)OCc1ccccc1)S(=O)(=O)c1ccccc1 [Table 1A Entry 39]
- IC50 (HIV protease; [2]): 16 nM

Compound: CC(C)CCN(C[C@@H](O)[C@H](Cc1ccccc1)NC(=O)OCc1ccccc1)S(=O)(=O)C(F)(F)F [Table 1A Entry 50]
- inhibition at 1 µM (HIV protease; [3]): 42%
- inhibition at 10 µM (HIV protease; [4]): 89%

Compound: CC(C)CN(C[C@@H](O)[C@H](Cc1ccccc1)NC(=O)OCc1ccccc1)S(C)(=O)=O [Table 1A Entry 51]
- inhibition at 1 µM (HIV protease; [3]): 31%
- inhibition at 10 µM (HIV protease; [4]): 76%

Compound: CC(C)CCN(C[C@@H](O)[C@H](Cc1ccccc1)NC(=O)OCc1ccccc1)S(=O)(=O)c1ccccc1[N+](=O)[O-] [Table 1a Entry 3]
- inhibition at 1 µM (HIV protease; [3]): 38%
- inhibition at 10 µM (HIV protease; [4]): 79%

Compound: CC(C)CCN(C[C@@H](O)[C@H](Cc1ccccc1)NC(=O)OCc1ccccc1)S(=O)(=O)Cc1ccccc1 [Table 1a Entry 6]
- inhibition at 10 µM (HIV protease; [4]): 36%

Compound: COc1ccc(S(=O)(=O)N(CC(C)C)CC(O)C(Cc2ccccc2)NC(=O)c2ccc(CS(C)(=O)=O)cc2)cc1 (centres unmarked) [Table 5A Entry 22]
- inhibition at 1 µM (HIV protease; [5]): 63%

Compound: CC(C)CCN(C[C@@H](O)[C@H](Cc1ccccc1)NC(=O)[C@H](CC(N)=O)NC(=O)c1ccc2ccccc2n1)S(C)(=O)=O [Table 15A Entry 4]
- IC50 (HIV protease; Table 15A, first part): 27 nM

Compound: CC(C)CCN(C[C@@H](O)[C@H](Cc1ccccc1)NC(=O)[C@H](CC(N)=O)NC(=O)c1ccc2ccccc2n1)S(C)(=O)=O [Table 16 Entry 4]
- IC50 (HIV protease; Table 16, enzyme assay): 27 nM

Compound: CC(C)CCN(C[C@@H](O)[C@H](Cc1ccccc1)NC(=O)[C@@H](NC(=O)CN(C)C)C(C)(C)C)S(C)(=O)=O [Table 16 Entry 6]
- CC50 [1]: 425 nM

Compound: CNC(=O)C[C@H](NC(=O)c1ccc2ccccc2n1)C(=O)N[C@@H](Cc1ccccc1)[C@H](O)CN(CCC(C)C)S(=O)(=O)c1ccccc1 [Table 16 Entry 7]
- CC50 [1]: 39 nM

Compound: CC(C)CCN(C[C@@H](O)[C@H](Cc1ccccc1)NC(=O)c1ccccc1)S(=O)(=O)c1ccccc1 [Table 16 Entry 8]
- CC50 [1]: 24 nM

Compound: CCC(C)[C@H](NC(=O)CN(C)C)C(=O)N[C@@H](Cc1ccccc1)[C@H](O)CN(CCC(C)C)S(=O)(=O)c1ccccc1 (some centres unmarked) [Table 16 Entry 14]
- CC50 [1]: 55000 nM

Compound: COc1ccc(S(=O)(=O)N(CC(C)C)C[C@@H](O)[C@H](Cc2ccccc2)NC(=O)c2ccccc2)cc1 [Table 16 Entry 28]
- IC50 (HIV protease; Table 16, enzyme assay): 14 nM

Compound: COc1ccc(S(=O)(=O)N(CC(C)C)C[C@@H](O)[C@H](Cc2ccccc2)NC(=O)c2ccccc2Cl)cc1 [Table 16 Entry 30]
- IC50 (HIV protease; Table 16, enzyme assay): 6 nM

Compound: CCc1ccccc1C(=O)N[C@@H](Cc1ccccc1)[C@H](O)CN(CC(C)C)S(=O)(=O)c1ccc(OC)cc1 [Table 16 Entry 31]
- IC50 (HIV protease; Table 16, enzyme assay): 10 nM

Compound: CC(C)CCN(C[C@@H](O)[C@H](Cc1ccccc1)NC(=O)OCc1ccccc1)S(=O)(=O)c1ccccc1 [drawing 314]
- IC50 (HIV protease; Table 15A, first part): 16 nM

Compound: CC(C)CCN(C[C@@H](O)[C@H](Cc1ccccc1)NC(=O)OCc1ccccc1)S(=O)(=O)c1ccccc1 [drawing 326]
- IC50 (HIV protease; Table 16, enzyme assay): 16 nM

Further lines, results first:

- inhibition at 1 µM (HIV protease; [3]): 24%
- inhibition at 10 µM (HIV protease; [4]): 74%
Compound: CC(C)CCN(C[C@@H](O)[C@H](Cc1ccccc1)NC(=O)OCc1ccccc1)S(C)(=O)=O [Table 1A Entry 41]

- inhibition at 1 µM (HIV protease; [3]): 39%
- inhibition at 10 µM (HIV protease; [4]): 81%
Compound: CC(C)CCN(C[C@@H](O)[C@H](Cc1ccccc1)NC(=O)OCc1ccccc1)S(=O)(=O)CCl [Table 1A Entry 52]

- IC50 (HIV protease; [2]): 11 nM
Compound: CC(C)CCN(C[C@@H](O)[C@H](Cc1ccccc1)NC(=O)OCc1ccccc1)S(=O)(=O)c1ccc(F)cc1 [Table 1a Entry 1]

- IC50 (HIV protease; [2]): 16 nM
Compound: CC(C)CCN(C[C@@H](O)[C@H](Cc1ccccc1)NC(=O)OCc1ccccc1)S(=O)(=O)c1ccc2ccccc2c1 [Table 1a Entry 4]

- IC50 (HIV protease; [2]): 9.6 nM
Compound: CC(C)CN(C[C@@H](O)[C@H](Cc1ccccc1)NC(=O)OCc1ccccc1)S(=O)(=O)c1ccc(F)cc1 [Table 1a Entry 7]

- inhibition at 0.1 µM (HIV protease; Table 15A, @ 0.1 uM): 38%
- inhibition at 1 µM (HIV protease; [3]): 90%
Compound: CC(C)CCN(C[C@@H](O)[C@H](Cc1ccccc1)NC(=O)C(NC(=O)CN(C)C)C(C)(C)C)S(C)(=O)=O (some centres unmarked) [Table 3 Entry 2]

- IC50 (HIV protease; Table 5B): 26 nM
Compound: COc1ccc(S(=O)(=O)N(CC(C)C)CC(O)C(Cc2ccccc2)NC(=O)c2ccc3[nH]ccc3c2)cc1 (centres unmarked) [Table 5A Entry 5]

- inhibition at 10 µM (HIV protease; Table 5B, @ 10 μM, read-out: % inhibition): 59%
Compound: COc1ccc(S(=O)(=O)N(CC(C)C)CC(O)C(Cc2ccccc2)NC(=O)c2ccccc2S(C)(=O)=O)cc1 (centres unmarked) [Table 5A Entry 17]

- inhibition at 1 µM (HIV protease; [5]): 85%
Compound: COc1ccc(S(=O)(=O)N(CC(C)C)CC(O)C(Cc2ccccc2)NC(=O)c2ccccc2CS(C)(=O)=O)cc1 (centres unmarked) [Table 5A Entry 20]

- IC50 (HIV protease; Table 5B): 190 nM
Compound: COc1ccc(S(=O)(=O)N(CC(C)C)CC(O)C(Cc2ccccc2)NC(=O)c2ccccc2OC)cc1 (centres unmarked) [Table 5A Entry 29]

- IC50 (HIV protease; [2]): 130 nM
Compound: CC(C)CCN(C[C@@H](O)[C@H](Cc1ccccc1)NC(=O)C(N)C(C)(C)C)S(=O)(=O)c1ccccc1 (some centres unmarked) [Table 11 Entry 1]

- IC50 (HIV protease; [2]): 3.3 nM
Compound: CC(C)CCN(C[C@@H](O)[C@H](Cc1ccccc1)NC(=O)[C@@H](NC(=O)CBr)C(C)(C)C)S(=O)(=O)c1ccccc1 [Table 12 Entry 10]
